Measured values as given in patent US5668182A, “Method of calming or sedating an animal with a hydroxy benzaldehyde compound” (priority 1996, dated 1997).
Read-outs that look alike come from different tables or passages of the source.

Experiments:
rats = assay: Behavioral depression in rats after i.v. infusion (Example 1); format: in vivo; conditions: for Grip Absent (number of rats): first figure of cell; for Grip Weak (number of rats): second figure of cell
Experimental: To assess behavioral depression in rats as induced by vanillin, male and female rats, five of each gender at each dose, were given doses of vanillin of 50, 100 or 200 mg/kg, respectively, or a control vehicle (0.9% sodium chloride in water) by intravenous (i.v.) infusion. Therefore, there were four groups of rats with ten rats per group tested at each dosage. The solution was infused into a tail vein through a butterfly cannula, with the infusion being performed at a constant rate over a 5-minute period using a Harvard infusion pump.
The evaluations were performed on days 1, 3, 5 and 9 of vanillin administration.

mice = assay: Inverted screen test in mice (Example 4); format: in vivo; conditions: for ED50: Mus musculus, ip
Experimental: An inverted screen test was performed on mice to investigate the effect of vanillin and vanillin analogs on muscular function. After i.p. injection of vanillin or vehicle, each mouse was placed on a wire screen (12.8 cm×12.8 cm with a 6 mm mesh size) and the screen was inverted. A positive effect was found if the drug caused the mouse to fall from the screen within 60 seconds. A negative effect was found if the mouse had the ability to climb from the underside of the screen to the top side of the screen within the 60 second time period. Hanging from the underside of the screen without falling but without climbing to the topside at 60 seconds is recorded as a one-half positive effect per the convention of Coughenour, L. L.; Mclean, J. R.; Parker, R. B., "A New Device for the Rapid Measurement of Impaired Motor Function in Mice," Pharmacol. Biochem. Behav., 6: 351-353; 1977. The test was performed at 2, 5, 10, and 30 minutes following administration of vanillin or vehicle. At each of those times, an ED-50 (and 95% confidence limits) was determined for vanillin. Six mice were used in each experimental group.
Several analogs of vanillin were also examined in this test. The chemical structures and chemical names for these compounds are described hereinabove.
The testing of these compounds was limited both by supply of compound and by solubility. Testing was performed at 2, 5, 10, 20 minutes after administration of drug or vehicle. The vehicles used to solubilize the analogs were as follows: 10% ethanol for TBJ1, TBJ2, and TBJ3; 3% ammonium hydroxide solution in saline for FSA (pH=9); 6.7% ammonium hydroxide in saline for TB17 (pH=9.3); and 20% ethanol, 1% ammonium hydroxide solution in saline for TB34 (pH=10.0). ED-50s of compounds (and 95% confidence limits) were calculated in cases where the data permitted the calculation.

man = conditions: in man; cited from earlier work
[1] = 50 mg/kg i.v., day 1, <2 min, 10 rats per group
[2] = highest dose (200 mg/kg i.v.), day 1
[3] = highest dose (200 mg/kg i.v.), days 5 and 9

## COc1cc(C=O)ccc1O [vanillin, 4-hydroxy-3-methoxybenzaldehyde]
rats; 50 mg/kg i.v., day 1, 10 min
  Ambulation Absent (number of rats): 0
  Grip Absent (number of rats): 0
  Grip Weak (number of rats): 0
rats; 50 mg/kg i.v., day 1, 10 min, 10 rats per group
  Sign of depression: Score > 0 (number of rats): 0
rats; 50 mg/kg i.v., day 1, 20 min
  Ambulation Absent (number of rats): 0
  Grip Absent (number of rats): 0
  Grip Weak (number of rats): 0
rats; 50 mg/kg i.v., day 1, 20 min, 10 rats per group
  Sign of depression: Score > 0 (number of rats): 0
rats; 50 mg/kg i.v., day 1, 30 min
  Ambulation Absent (number of rats): 0
  Grip Absent (number of rats): 0
  Grip Weak (number of rats): 0
rats; 50 mg/kg i.v., day 1, 30 min, 10 rats per group
  Sign of depression: Score > 0 (number of rats): 0
rats; 50 mg/kg i.v., day 1, 45 min
  Ambulation Absent (number of rats): 0
  Grip Absent (number of rats): 0
  Grip Weak (number of rats): 0
rats; 50 mg/kg i.v., day 1, 45 min, 10 rats per group
  Sign of depression: Score > 0 (number of rats): 0
rats; [1]
  Ambulation Absent (number of rats): 0
  Grip Absent (number of rats): 0
  Grip Weak (number of rats): 1
rats; 50 mg/kg i.v., day 1, <2 min after treatment, 10 rats per group
  Sign of depression: Score > 0 (number of rats): 0
rats; 100 mg/kg i.v., day 1, 10 min
  Ambulation Absent (number of rats): 0
  Grip Absent (number of rats): 0
  Grip Weak (number of rats): 2
rats; 100 mg/kg i.v., day 1, 10 min, 10 rats per group
  Sign of depression: Score > 0 (number of rats): 0
rats; 100 mg/kg i.v., day 1, 20 min
  Ambulation Absent (number of rats): 0
  Grip Absent (number of rats): 0
  Grip Weak (number of rats): 0
rats; 100 mg/kg i.v., day 1, 20 min, 10 rats per group
  Sign of depression: Score > 0 (number of rats): 0
rats; 100 mg/kg i.v., day 1, 30 min
  Ambulation Absent (number of rats): 0
  Grip Absent (number of rats): 0
  Grip Weak (number of rats): 0
rats; 100 mg/kg i.v., day 1, 30 min, 10 rats per group
  Sign of depression: Score > 0 (number of rats): 0
rats; 100 mg/kg i.v., day 1, 45 min
  Ambulation Absent (number of rats): 0
  Grip Absent (number of rats): 0
  Grip Weak (number of rats): 0
rats; 100 mg/kg i.v., day 1, 45 min, 10 rats per group
  Sign of depression: Score > 0 (number of rats): 0
rats; 100 mg/kg i.v., day 1, <2 min
  Ambulation Absent (number of rats): 0
  Grip Absent (number of rats): 0
  Grip Weak (number of rats): 6
rats; 100 mg/kg i.v., day 1, <2 min after treatment, 10 rats per group
  Sign of depression: Score > 0 (number of rats): 0
rats; 200 mg/kg i.v., day 1, 10 min
  Ambulation Absent (number of rats): 0
  Grip Absent (number of rats): 0
  Grip Weak (number of rats): 8
rats; 200 mg/kg i.v., day 1, 10 min, 10 rats per group
  Sign of depression: Score > 0 (number of rats): 0
rats; 200 mg/kg i.v., day 1, 20 min
  Ambulation Absent (number of rats): 0
  Grip Absent (number of rats): 0
  Grip Weak (number of rats): 8
rats; 200 mg/kg i.v., day 1, 20 min, 10 rats per group
  Sign of depression: Score > 0 (number of rats): 0
rats; 200 mg/kg i.v., day 1, 30 min
  Ambulation Absent (number of rats): 0
  Grip Absent (number of rats): 0
  Grip Weak (number of rats): 5
rats; 200 mg/kg i.v., day 1, 30 min, 10 rats per group
  Sign of depression: Score > 0 (number of rats): 0
rats; 200 mg/kg i.v., day 1, 45 min
  Ambulation Absent (number of rats): 0
  Grip Absent (number of rats): 0
  Grip Weak (number of rats): 2
rats; 200 mg/kg i.v., day 1, 45 min, 10 rats per group
  Sign of depression: Score > 0 (number of rats): 0
rats; 200 mg/kg i.v., day 1, <2 min
  Ambulation Absent (number of rats): 5
  Grip Absent (number of rats): 10
  Grip Weak (number of rats): 10
rats; 200 mg/kg i.v., day 1, <2 min after treatment, 10 rats per group
  Sign of depression: Score > 0 (number of rats): 3
rats; days 5 and 9
  rats rated with depression scores above zero: no rats
rats; days 5 and 9, almost all rats with diminished grip
  time for diminished grip to return to normal: ≤ 20 min
rats; days 5 and 9, i.v.
  tolerance to depressant effects: some suggestion of tolerance
rats; [2]
  effect on grip strength: obliterated
  persistence of slight effect on grip strength: ≥ 45 min
rats; [3]
  rats displaying absence of grip: 4 of 10
  rats exhibiting no muscular or motor impairment at all: 1
rats; i.v., highest dose 200 mg/kg, day 1, some of the rats
  time for return of ability to walk: less than 10 minutes
rats; intermediate and high dose groups i.v., several rats
  persistence of eye closure: up to 45 minutes
rats; intermediate and high dose groups i.v., several rats, typically
  time to appearance of eye closure: ≤ 10 min
rats; intermediate dose (100 mg/kg i.v.), day 1
  effect on grip strength: weakened in most rats
rats; vanillin given alone, rats
  effects on righting reflex and on motor coordination: mild and transient
mice; 2 min, 2 min post-treatment, read-out: ED-50 (95% confidence limits)
  ED50: 112 mg/kg
mice; 5 min, 5 min post-treatment, read-out: ED-50 (95% confidence limits)
  ED50: 104 mg/kg
mice; 10 min, 10 min post-treatment, read-out: ED-50 (95% confidence limits)
  ED50: 112 mg/kg
mice; 10 min, first 10 minutes after injection, read-out: ED-50
  ED50: ~100 mg/kg
mice; 0.5 h, 30 min post-treatment, read-out: ED-50 (95% confidence limits)
  ED50: 748 mg/kg
mice; between 10 and 30 minutes after injection
  change of potency with time: declined precipitously
man
  metabolism and excretion: converted to vanillic acid in the liver and is excreted in the urine
